Read-outs that look alike come from different tables or passages of the source. Marks after values point to notes of the source that are not given here.
Key:
[1] = Storage stability of benzoylacetate salts and their corresponding acid (HPLC or gravimetric); format: physicochemical; conditions: for % relative to initial sample amount (by HPLC): stored in freezer (ca −18° C.)
Experimental: (§1) A 0.2 M solution of ethyl benzoyl acetate (90%, Sigma Aldrich) in 0.5 M NaOH (aq) was prepared at room temperature and stirred for typically 5-24 hours, still at room temperature. After this time a major part of the ethyl benzoyl acetate had been transformed into dissolved sodium benzoyl acetate, as evidenced by monitoring the reaction by analysis of samples by reversed phase HPLC. Some acetophenone and remaining ethyl benzoyl acetate were typically present in the samples, but in minor amounts. The method employed a C8 column with an inner diameter of 150×4.6 mm and 5 micron particles. The mobile phase consisted of 400 ml deionized water+600 ml acetonitrile+0.196 g H3PO4 (85%)+2.760 g NaH2PO4*H2O. The flow rate was set to 1.0 mL/min and UV detection at 254 nm was employed for analysis of the compounds ethylbenzoylacetate (precursor), benzoylacetate (model prodrug) and acetophenone (model drug).
The storage stability of the sodium and calcium salts of benzoylacetate, and of benzoylacetic acid, in solid form, and in aqueous solutions, was investigated by storage of samples under various conditions (see Table 3a above) with regular HPLC- or gravimetric measurements of the samples from time to time. Samples denoted “neutralized” were prepared from a solution prepared as described in Example 1, which was neutralized with diluted HCl after performing the steps in Example 1.
From the data it can be concluded that the best storage stability at room temperature is obtained by storage in the form of the calcium salt.

[2] = Sustained release of acetophenone in vitro in model blood electrolyte solution at 37° C.; format: physicochemical; conditions: for Concentration of sodium benzoyl acetate model prodrug in sample: model blood electrolyte solution pH 7.4
Experimental: as §1
Ethyl benzoyl acetate was saponified according to the description in Example 1, and after 7 hours a solution containing about 0.2 M of the sodium salt of benzoyl acetate was obtained.

[3] = pH 7

In the case of O=C([O-])CC(=O)c1ccccc1.[Na+] [sodium benzoylacetate], the “% relative to sample amount remaining after 2 days (by HPLC)” value (“% relative to sample amount remaining” below) ([1]; Alkaline solution of Na-benzoyl acetate from Example 1, stored at room T, storage time 2 days) is reported as 100.0%, the “% relative to sample amount remaining” value ([1]; Alkaline solution of Na-benzoyl acetate from Example 1, stored at room T, storage time 8 days) is reported as 66.2% and the “% relative to sample amount remaining” value ([1]; Alkaline solution of Na-benzoyl acetate from Example 1, stored at room T, storage time 23 days) is reported as 10.0%. For the same compound, the “% relative to sample amount remaining” value ([1]; Neutralized solution of Na-benzoyl acetate from Example 1 (pH 7.1), at room T, storage time 2 days) was 100.0%, the “% relative to sample amount remaining” value ([1]; Neutralized solution of Na-benzoyl acetate from Example 1 (pH 7.1), at room T, storage time 8 days) was 52.0% and the “% relative to sample amount remaining” value ([1]; Neutralized solution of Na-benzoyl acetate from Example 1 (pH 7.1), at room T, storage time 23 days) was 8.9%. The “% relative to sample amount remaining” value ([1]; Solid Na-salt, neutralized, 30-50% RH at room T, storage time 2 days) was 100.0%, the “% relative to sample amount remaining” value ([1]; Solid Na-salt, neutralized, 30-50% RH at room T, storage time 8 days) was 84.8% and the “% relative to sample amount remaining” value ([1]; Solid Na-salt, neutralized, 30-50% RH at room T, storage time 23 days) was 33.4%. For the same compound, the “% of absolute amount expected to be present in sample (by HPLC)” value (shortened to “% of absolute amount expected”) ([1]; Solid Na-salt, neutralized, 30-50% RH at room T, storage time 185 days) was 1.3*** %, the “% of absolute amount expected” value ([1]; Solid Na-salt, neutralized, stored at 6° C., storage time 0 days) was 103.1% and the “% of absolute amount expected” value ([1]; Solid Na-salt, neutralized, stored at 6° C., storage time 2 days) was 112.6%. For the same compound, the “% of absolute amount expected” value ([1]; Solid Na-salt, neutralized, stored at 6° C., storage time 5 days) was 109.2%, the “% of absolute amount expected” value ([1]; Solid Na-salt, neutralized, stored at 6° C., storage time 8 days) was 102.0% and the “% of absolute amount expected” value ([1]; Solid Na-salt, neutralized, stored at 6° C., storage time 12 days) was 100.7%. The “% of absolute amount expected” value ([1]; Solid Na-salt, neutralized, stored at 6° C., storage time 16 days) was 98.5%, the “% of absolute amount expected” value ([1]; Solid Na-salt, neutralized, stored at 6° C., storage time 21 days) was 81.9% and the “% of absolute amount expected” value ([1]; Solid Na-salt, neutralized, stored at 6° C., storage time 37 days) was 74.6%. The “% of absolute amount expected” value ([1]; Solid Na-salt, neutralized, stored at 6° C., storage time 49 days) was 72.3%, the “% of absolute amount expected” value ([1]; Solid Na-salt, neutralized, stored at 60° C., storage time 0.02 days) was 77.2% and the “% of absolute amount expected” value ([1]; Solid Na-salt, neutralized, stored at 60° C., storage time 0.8 days) was 10.7%. The “% of absolute amount expected” value ([1]; Solid Na-salt, neutralized, stored at 60° C., storage time 9.1 days) was 3.6%, the “% relative to initial sample amount (by HPLC)” value ([1]; Solid Na-salt, neutralized, storage time 0 days) was 100% and the “% relative to initial sample amount (by HPLC)” value ([1]; Solid Na-salt, neutralized, storage time 2 days) was 100%. The “% relative to initial sample amount (by HPLC)” value ([1]; Solid Na-salt, neutralized, storage time 5 days) was 124%, the “% relative to initial sample amount (by HPLC)” value ([1]; Solid Na-salt, neutralized, storage time 8 days) was 106% and the “% relative to initial sample amount (by HPLC)” value ([1]; Solid Na-salt, neutralized, storage time 12 days) was 112%. For the same compound, the “% relative to initial sample amount (by HPLC)” value ([1]; Solid Na-salt, neutralized, storage time 16 days) was 106%, the “% relative to initial sample amount (by HPLC)” value ([1]; Solid Na-salt, neutralized, storage time 21 days) was 101% and the “% relative to initial sample amount (by HPLC)” value ([1]; Solid Na-salt, neutralized, storage time 37 days) was 105%. For the same compound, the “% relative to initial sample amount (by HPLC)” value ([1]; Solid Na-salt, neutralized, storage time 49 days) was 117%, the “% relative to sample amount remaining” value ([1]; Solid Na-salt, non neutralized, 30-50% RH at room T, storage time 2 days) was 100.0% and the “% relative to sample amount remaining” value ([1]; Solid Na-salt, non neutralized, 30-50% RH at room T, storage time 8 days) was 46.8%. The “% relative to sample amount remaining” value ([1]; Solid Na-salt, non neutralized, 30-50% RH at room T, storage time 23 days) was 12.4%, the half-life at 2 mM ([2]; model blood electrolyte solution pH 7.4, 37° C., read-out: estimated half-life (converted)) was roughly 20 h and the “Concentration of sodium benzoyl acetate model prodrug in sample” value (“Concentration” for short) ([2]; Time @ 37° C. 0.42) was 2660 µM. The “Concentration” value ([2]; Time @ 37° C. 2.25) was 2300 µM, the “Concentration” value ([2]; Time @ 37° C. 3.17) was 2440 µM and the “Concentration” value ([2]; Time @ 37° C. 4.17) was 2400 µM. The “Concentration” value ([2]; Time @ 37° C. 6.17) was 1710 µM, the “Concentration” value ([2]; Time @ 37° C. 8.25) was 1960 µM and the “Concentration” value ([2]; Time @ 37° C. 10.17) was 1690 µM. The “Concentration” value ([2]; Time @ 37° C. 12.17) was 1590 µM, the “Concentration” value ([2]; Time @ 37° C. 13.92) was 1520 µM and the “Concentration” value ([2]; Time @ 37° C. 17.92) was 1430 µM. The “Concentration” value ([2]; Time @ 37° C. 21.17) was 1310 µM, the “Concentration” value ([2]; Time @ 37° C. 24.92) was 1020 µM and the “Concentration” value ([2]; Time @ 37° C. 31.33) was 940 µM. The “Concentration” value ([2]; Time @ 37° C. 48.75) was 530 µM, the “Concentration” value ([2]; Time @ 37° C. 76.33) was 200 µM and the Solubility [3] was “≧200 mM”. The Solubility (physchem; pH 7, water, Solubility) was greater than 200 mM and the Solubility (physchem; water, Solubility (mM, as acetophenone equivalents)) was no less than 200 mM.

Reference: US20120065179A1, “PRODRUG COMPRISING BETA-KETO CARBOXYLIC ACID, BETA-KETO CARBOXYLIC ACID SALT OR BETA-KETO CARBOXYLIC ACID ESTER FOR DRUG DELIVERY” (YKI, Ytemiska Institutet AB, priority 2009, published 2012)
